In PubChem BioAssay AID424 (Public Access to Neuroactive & Anticonvulsant Chemical …, 2006):

Assays:
[1] = tested on: mouse i.p. maximal electroshock seizure protection, ED50; experiment: seizure model ED50 and toxic TD50 values – quantitative, MES, scMET, kindled rat, Frings mice, in vivo study, summary (AID 424)
[2] = as above
[3] = measured here: kindled rat ED50

Row | Compound | ED50 [1] [mg/kg] | ED50 [1, 3] [mg/kg] | TD50 ([2]; i.p. mouse neurotoxicity TD50) [mg/kg] | ED50 ([2]; i.p. mouse scBic ED50) [mg/kg] | ED50 ([2]; i.p. mouse scMET ED50) [mg/kg] | ED50 ([2]; i.p. mouse scPic ED50) [mg/kg] | ED50 ([2]; i.p. rat MES ED50) [mg/kg] | ED50 ([2]; oral rat MES ED50) [mg/kg] | ED50 ([2]; oral rat scMET ED50) [mg/kg] | TD50 ([2]; oral rat toxicity TD50) [mg/kg] | ED50 ([2]; Frings audiogenic mouse ED50) [mg/kg] | ED50 ([2]; oral mouse MES ED50) [mg/kg] | ED50 ([2]; oral mouse scMET ED50) [mg/kg]
1 | CCC1(c2ccccc2)C(=O)NC(=O)NC1=O | 11.3 | 19.7 | 45.5 | 37.7 | 13.9 | 27.5 | 2.61 | 8.26 | 26.1 | 51 |  |  | 
2 | NC(=O)N1c2ccccc2C=Cc2ccccc21 | 7.81 | 28.2 | 45.4 | > 50 | > 50 | 18.2 | 4.05 | 5.35 | > 250 | 364 | 11.2 | 11.9 | 40.9
3 | CCC1(C)CC(=O)NC1=O (configuration not stated) |  |  | 341 | 272 | 136 | 226 | > 220 | > 500 | 167 | > 500 | 328 | > 1000 | 203
4 | CCN(CC)CC(=O)Nc1c(C)cccc1C | 14.4 |  | 65.1 | > 70 | > 66 | > 70 |  | 31.2 | > 250 | 283 |  | 21 | > 140
5 | O=C1CN=C(c2ccccc2Cl)c2cc([N+](=O)[O-])ccc2N1 | 25.5 | 0.79 | 0.264 | 0.039 | 0.024 | 0.074 | 0.67 | 7.86 | 0.607 | 2.38 | 0.105 | 42.8 | 0.03
